Assay results taken from ChEMBL document CHEMBL1151562, “Stereoselective synthesis of novel analogues of 2-deoxy- and 2,3-dideoxynucleosides with potential antiviral activity” (Bioorg Med Chem Lett, 1994).
The source made the active and inactive calls.

Columns and labels:
Type in all cases: functional, cell-based
MT2 [1] = assay: Tested for antiproliferative activity against human tumor MT-2 T-lymphoid cells up to 72 hrs at concentration of 2.5 ug/ml; Inactive
Daudi [2] = assay: Tested for antiproliferative activity against human tumor DAUDI EBV-immortalized B-lymphoid cells up to 72 hrs at concentration of 10 ug/ml; Inactive
MT2 [3] = assay: Tested for antiproliferative activity against human tumor MT-2 T-lymphoid cells up to 72 hrs at concentration of 5 ug/ml; Inactive
[4] = Tested for antiproliferative activity against human tumor U937 cell line up to 72 hrs at concentration of 1.25 ug/ml; Inactive
Daudi [5] = assay: Tested for antiproliferative activity against human tumor DAUDI EBV-immortalized B-lymphoid cells up to 72 hrs at concentration of 2.5 ug/ml; Inactive
[6] = (§1) Tested for antiproliferative activity against human tumor U937 cell line up to 72 hrs at concentration of 10 ug/ml; Inactive
MT2 [7] = assay: Tested for antiproliferative activity against human tumor MT-2 T-lymphoid cells up to 72 hrs at concentration of 1.25 ug/ml; Inactive
[8] = (§2) Tested for antiproliferative activity against human tumor U937 cell line up to 72 hrs at concentration of 5 ug/ml; Inactive
HL-60 [9] = assay: as §2
[10] = Tested for antiproliferative activity against human tumor U937 cell line up to 72 hrs at concentration of 2.5 ug/ml; Inactive
[11] = Tested for cell count against human tumor HL60 myeloid cells for antiproliferative activity; Inactive
MOLT-4 [12] = assay: Tested for antiproliferative activity against human tumor Molt-4 cell line up to 72 hrs at concentration of 10 ug/ml; Inactive
MT2 [13] = assay: Tested for antiproliferative activity against human tumor MT-2 T-lymphoid cells up to 72 hrs at concentration of 10 ug/ml; Inactive
[14] = Tested for cell count against human tumor MT-2 T-lymphoid cells for antiproliferative activity; Inactive
[15] = Tested for cell count against human tumor Molt-4 cell line for antiproliferative activity; Inactive
[16] = Tested for cell count against human tumor DAUDI EBV-immortalized B-lymphoid cells for antiproliferative activity; Inactive
Daudi [17] = assay: Tested for antiproliferative activity against human tumor DAUDI EBV-immortalized B-lymphoid cells up to 72 hrs at concentration of 1.25 ug/ml; Inactive
MOLT-4 [18] = assay: Tested for antiproliferative activity against human tumor Molt-4 cell line up to 72 hrs at concentration of 1.25 ug/ml; Inactive
Daudi [19] = assay: Tested for antiproliferative activity against human tumor DAUDI EBV-immortalized B-lymphoid cells up to 72 hrs at concentration of 5 ug/ml; Inactive
MOLT-4 [20] = assay: Tested for antiproliferative activity against human tumor Molt-4 cell line up to 72 hrs at concentration of 5 ug/ml; Inactive
K562 = assay: Tested for cell count against human tumor K562 erythromyeloid stem cells for antiproliferative activity; Inactive
MOLT-4 [21] = assay: Tested for antiproliferative activity against human tumor Molt-4 cell line up to 72 hrs at concentration of 2.5 ug/ml; Inactive
HL-60 [22] = assay: Tested for antiproliferative activity against human tumor HL60 myeloid cells up to 72 hrs at concentration of 10 ug/ml; Inactive
Daudi [23] = assay: as §1; conditions: U-937

Measured: Activity

C=CC[C@H]1C[C@@H](CO)OC1n1ccc(=O)[nH]c1=O (some centres not stated)
not listed: HL-60 [22] | Daudi [23]
inactive: all other assays above

CCC[C@H]1C[C@@H](CO)OC1n1ccc(=O)[nH]c1=O (some centres not stated)
not listed: HL-60 [9] | HL-60 [22] | Daudi [23]
inactive: all other assays above

C[C@@H]1C[C@@H](CO)O[C@H]1n1ccc(=O)[nH]c1=O
not listed: HL-60 [9] | HL-60 [22] | Daudi [23]
inactive: all other assays above

C[C@H]1C[C@@H](CO)O[C@H]1n1ccc(=O)[nH]c1=O
not listed: HL-60 [9] | HL-60 [22] | Daudi [23]
inactive: all other assays above

C=CCC1C(O)[C@@H](CO)O[C@H]1n1ccc(=O)[nH]c1=O (single isomer, unassigned)
not listed: HL-60 [9] | HL-60 [22] | Daudi [23]
inactive: all other assays above

C=CCC1C(O)[C@@H](CO)O[C@H]1n1ccc(N)nc1=O (single isomer, unassigned)
not listed: HL-60 [9] | HL-60 [22] | Daudi [23]
inactive: all other assays above

CCCC1C(O)[C@@H](CO)O[C@H]1n1ccc(=O)[nH]c1=O (single isomer, unassigned)
not listed: HL-60 [9] | HL-60 [22] | Daudi [23]
inactive: all other assays above

CCCC1C(O)[C@@H](CO)O[C@H]1n1ccc(N)nc1=O (single isomer, unassigned)
not listed: HL-60 [9] | HL-60 [22] | Daudi [23]
inactive: all other assays above

CC1[C@@H](O)[C@@H](CO)O[C@H]1n1ccc(=O)[nH]c1=O (single isomer, unassigned; 5a)
not listed: [6] | HL-60 [9]
inactive: all other assays above

CC1[C@@H](O)[C@@H](CO)O[C@H]1n1ccc(=O)[nH]c1=O (single isomer, unassigned; 5b)
not listed: HL-60 [9] | HL-60 [22] | Daudi [23]
inactive: all other assays above
